Data published in ChEMBL document CHEMBL5223122, “Discovery and preclinical evaluations of GST-HG131, a novel HBV antigen inhibitor for the treatment of chronic hepatitis B infection” (Bioorg Med Chem Lett, 2022).
The source made the active and inactive calls. The calls are words filed in the database; no cut-off is given here.

What was measured:
Hepatitis B virus [1] = assay: Antiviral activity against HBV infected in human HepG2.2.15 assessed as HBV DNA reduction by qPCR method; format: functional, organism-based
Hepatitis B virus [2] = assay: Antiviral activity against HBV infected in human HepG2.2.15 assessed as reduction on HBsAg level by ELISA; format: functional, organism-based
[3] = Clearance in C57BL/6 mouse at 1 mg/kg, iv; format: ADME, organism-based; details: in vivo
[4] = Volume of distribution in steady state in C57BL/6 mouse at 1 mg/kg, iv; format: ADME, organism-based; details: in vivo, read-out: Vdss
[5] = Half life in C57BL/6 mouse at 1 mg/kg, iv; format: ADME, organism-based; details: in vivo
[6] = Cmax in C57BL/6 mouse at 2 mg/kg, po; format: ADME, organism-based; design: dose 2 mg/kg, route po; details: in vivo
[7] = Oral bioavailability in C57BL/6 mouse at 2 mg/kg; format: ADME, organism-based; details: in vivo
[8] = Clearance in Sprague-Dawley rat at 1 mg/kg, iv; format: ADME, organism-based; details: in vivo
[9] = Volume of distribution in steady state in Sprague-Dawley rat at 1 mg/kg, iv; format: ADME, organism-based; details: in vivo, read-out: Vdss
[10] = Half life in Sprague-Dawley rat at 1 mg/kg, iv; format: ADME, organism-based; details: in vivo
[11] = Cmax in Sprague-Dawley rat at 2 mg/kg, po; format: ADME, organism-based; design: dose 2 mg/kg, route po; details: in vivo
[12] = Oral bioavailability in Sprague-Dawley rat at 2 mg/kg; format: ADME, organism-based; details: in vivo
[13] = Clearance in Beagle dog at 1 mg/kg, iv; format: ADME, organism-based, Canis lupus familiaris; details: in vivo
[14] = Volume of distribution in steady state in Beagle dog at 1 mg/kg, iv; format: ADME, organism-based, Canis lupus familiaris; details: in vivo, read-out: Vdss
[15] = Half life in Beagle dog at 1 mg/kg, iv; format: ADME, organism-based, Canis lupus familiaris; details: in vivo
[16] = Cmax in Beagle dog at 3 mg/kg, po; format: ADME, organism-based, Canis lupus familiaris; design: dose 3 mg/kg, route po; details: in vivo
[17] = AUC (0-last) in Beagle dog at 3 mg/kg, po; format: ADME, organism-based, Canis lupus familiaris; design: dose 3 mg/kg, route po; details: in vivo
[18] = Oral bioavailability in Beagle dog at 3 mg/kg; format: ADME, organism-based, Canis lupus familiaris; details: in vivo
[19] = Apparent permeability across apical to basolateral side in human Caco-2 cells; format: ADME, cell-based
[20] = Apparent permeability across basolateral to apical side in human Caco-2 cells; format: ADME, cell-based
[21] = Efflux ratio of apparent permeability from basolateral to apical side over apical to basolateral side in human Caco-2 cells; format: ADME, cell-based
[22] = Protein binding in human plasma assessed as unbound fraction; format: ADME, cell-free
[23] = Protein binding in rat plasma assessed as unbound fraction; format: ADME, cell-free
[24] = Microsomal stability in mouse liver microsomes assessed as intrinsic clearance measured per mg of protein; format: ADME, Microsome; details: read-out: CLH
[25] = Microsomal stability in rat liver microsomes assessed as intrinsic clearance measured per mg of protein; format: ADME, Microsome; details: read-out: CLH
[26] = Microsomal stability in dog liver microsomes assessed as intrinsic clearance measured per mg of protein; format: ADME, Canis lupus familiaris, Microsome; details: read-out: CLH
[27] = Microsomal stability in cynomolgus monkey liver microsomes assessed as intrinsic clearance measured per mg of protein; format: ADME, Macaca fascicularis, Microsome; details: read-out: CLH
[28] = Microsomal stability in human liver microsomes assessed as intrinsic clearance measured per mg of protein; format: ADME, Microsome; details: read-out: CLH
CYP1A2 = target: T1, CYP1A2 (Homo sapiens, UniProt P05177); assay: Inhibition of CYP1A2 (unknown origin); format: ADME
T1 sequence (P05177 whole entry): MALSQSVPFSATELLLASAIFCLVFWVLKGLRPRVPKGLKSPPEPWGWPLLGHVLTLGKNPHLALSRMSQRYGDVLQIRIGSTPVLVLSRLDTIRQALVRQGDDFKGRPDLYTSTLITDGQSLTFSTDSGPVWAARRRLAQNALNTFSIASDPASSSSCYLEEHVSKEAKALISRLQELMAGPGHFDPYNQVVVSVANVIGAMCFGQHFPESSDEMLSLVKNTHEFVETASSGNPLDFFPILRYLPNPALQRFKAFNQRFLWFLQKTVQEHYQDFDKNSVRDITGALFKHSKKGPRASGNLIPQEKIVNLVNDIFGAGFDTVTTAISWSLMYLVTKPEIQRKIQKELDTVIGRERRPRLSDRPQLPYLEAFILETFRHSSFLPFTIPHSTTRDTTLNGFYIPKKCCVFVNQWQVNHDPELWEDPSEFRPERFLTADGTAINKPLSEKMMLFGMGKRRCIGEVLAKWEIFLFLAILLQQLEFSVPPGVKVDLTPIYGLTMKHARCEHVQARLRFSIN

CYP2D6 = CYP2D6 (Homo sapiens, UniProt P10635); assay: Inhibition of CYP2D6 (unknown origin); format: ADME
CYP2C19 = CYP2C19 (Homo sapiens, UniProt P33261); assay: Inhibition of CYP2C19 (unknown origin); format: ADME
CYP2C9 = CYP2C9 (Homo sapiens, UniProt P11712); assay: Inhibition of CYP2C9 (unknown origin); format: ADME
CYP3A4 = CYP3A4 (Homo sapiens, UniProt P08684); assay: Inhibition of CYP3A4 (unknown origin); format: ADME
[29] = target: Voltage-gated inwardly rectifying potassium channel KCNH2 (Homo sapiens, UniProt Q12809); assay: Inhibition of human ERG; format: toxicity
Cytochrome P450 3A4 = Cytochrome P450 3A4 (Homo sapiens, UniProt P08684); assay: Induction of CYP3A4 (unknown origin); format: ADME
Hepatitis B virus [30] = assay: Antiviral activity against HBV infected in human primary hepatocytes assessed as reduction on HBsAg level by ELISA; format: functional, organism-based; details: Hepatocyte
Hepatitis B virus [31] = assay: Antiviral activity against HBV infected in human primary hepatocytes assessed as reduction on HBeAg level by ELISA; format: functional, organism-based; details: Hepatocyte
Hepatitis B virus [32] = assay: Antiviral activity against HBV infected in human primary hepatocytes assessed as HBV DNA reduction at 20 uM by qPCR method; format: functional, Primary hepatocyte; design: scale not given: the % may be the effect or the level left
Hepatitis B virus [33] = assay: Antiviral activity against HBV infected in human HepG2.2.15 cells assessed as reduction of 3.5 Kb HBV RNA level at 0.23 to 500 nM by Northern blot anlaysis; format: functional, organism-based; details: dose 0.23-500 nM
Hepatitis B virus [34] = assay: Antiviral activity against HBV infected in human HepG2.2.15 cells assessed as reduction of 2.4/2.1 Kb HBV RNA level at 0.23 to 500 nM by Northern blot anlaysis; format: functional, organism-based; details: dose 0.23-500 nM
Hepatitis B virus [35] = assay: Antiviral activity against HBV infected in human HepG2.2.15 cells assessed as reduction of 3.5 Kb HBV RNA level at 500 nM incubated for 4 to 48 hrs by Northern blot anlaysis; format: functional, organism-based; details: time 4-48 hrs, TDE = time-dependent effect
Hepatitis B virus [36] = assay: Antiviral activity against HBV infected in human HepG2.2.15 cells assessed as reduction of 2.4/2.1 Kb HBV RNA level at 500 nM incubated for 4 to 48 hrs by Northern blot anlaysis; format: functional, organism-based; details: time 4-48 hrs, TDE = time-dependent effect
Hepatitis B virus [37] = assay: Antiviral activity against HBV infected in human HepG2.2.15 cells assessed as maximum efficacy causing reduction of 3.5 Kb HBV RNA level incubated for 16 hrs by Northern blot anlaysis; format: functional, organism-based
Hepatitis B virus [38] = assay: In vivo antiviral activity against AAV encapsidated HBV infected in mouse assessed as reduction in HBsAg level at 3 to 10 mg/kg, po QD for 4 weeks by ELISA; format: functional, organism-based; details: dose 3-10 mg/kg
Hepatitis B virus [39] = assay: In vivo antiviral activity against AAV encapsidated HBV infected in mouse assessed as reduction in HBeAg level at 3 to 10 mg/kg, po QD for 4 weeks by ELISA; format: functional, organism-based; details: dose 3-10 mg/kg
Hepatitis B virus [40] = assay: In vivo antiviral activity against AAV encapsidated HBV infected in mouse assessed as reduction in HBV DNA at 3 to 10 mg/kg, po QD for 4 weeks by qPCR method; format: functional, organism-based; details: dose 3-10 mg/kg
Hepatitis B virus [41] = assay: In vivo antiviral activity against AAV encapsidated HBV infected in mouse assessed as reduction in HBsAg level at 10 mg/kg, po QD for 4 weeks in presence of tenofovir disoproxil fumarate by ELISA; format: functional, organism-based
Hepatitis B virus [42] = assay: In vivo antiviral activity against AAV encapsidated HBV infected in mouse assessed as reduction in HBeAg level at 10 mg/kg, po QD for 4 weeks in presence of tenofovir disoproxil fumarate by ELISA; format: functional, organism-based
Hepatitis B virus [43] = assay: In vivo antiviral activity against AAV encapsidated HBV infected in mouse assessed as reduction in HBV DNA at 10 mg/kg, po QD for 4 weeks in presence of tenofovir disoproxil fumarate by qPCR method; format: functional, organism-based
[44] = Toxicity in mouse infected with AAV encapsidated HBV assessed as change in body weight at 3 to 10 mg/kg, po QD for 4 weeks; format: organism-based; details: in vivo, 672 h, dose 3-10 mg/kg
[45] = Glutathione reactivity assessed as GSH adduct formation; format: ADME
[46] = Toxicity in rat assessed as organ abnormality at 100 to 300 mg/kg, po QD for 14 days; format: organism-based; details: in vivo, 336 h, dose 100-300 mg/kg, time 14 day
[47] = Toxicity in rat assessed as mild white myeloid lymphocytopenia of spleen at 1000 mg/kg, po QD for 14 days; format: organism-based; details: in vivo, 336 h, time 14 day
[48] = Toxicity in rat assessed as rectal temperature at 300 to 1000 mg/kg, po measured after 1 hrs; format: organism-based; details: in vivo, dose 300-1000 mg/kg

Chain of CYP2C19 (P33261 whole entry): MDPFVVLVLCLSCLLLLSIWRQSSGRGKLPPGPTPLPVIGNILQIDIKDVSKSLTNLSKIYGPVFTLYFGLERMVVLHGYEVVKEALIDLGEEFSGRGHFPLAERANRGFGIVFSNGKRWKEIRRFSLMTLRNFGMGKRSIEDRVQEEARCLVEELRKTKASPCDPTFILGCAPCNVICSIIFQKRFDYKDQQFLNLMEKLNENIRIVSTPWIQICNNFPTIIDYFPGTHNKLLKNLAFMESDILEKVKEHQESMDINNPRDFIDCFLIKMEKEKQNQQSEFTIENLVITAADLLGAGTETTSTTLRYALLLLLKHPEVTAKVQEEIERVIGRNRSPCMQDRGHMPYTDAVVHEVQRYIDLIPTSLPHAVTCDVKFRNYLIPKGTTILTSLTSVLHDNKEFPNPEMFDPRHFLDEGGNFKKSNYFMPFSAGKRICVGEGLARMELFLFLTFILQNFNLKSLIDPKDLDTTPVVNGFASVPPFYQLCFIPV
Chain of CYP2C9 (P11712 whole entry): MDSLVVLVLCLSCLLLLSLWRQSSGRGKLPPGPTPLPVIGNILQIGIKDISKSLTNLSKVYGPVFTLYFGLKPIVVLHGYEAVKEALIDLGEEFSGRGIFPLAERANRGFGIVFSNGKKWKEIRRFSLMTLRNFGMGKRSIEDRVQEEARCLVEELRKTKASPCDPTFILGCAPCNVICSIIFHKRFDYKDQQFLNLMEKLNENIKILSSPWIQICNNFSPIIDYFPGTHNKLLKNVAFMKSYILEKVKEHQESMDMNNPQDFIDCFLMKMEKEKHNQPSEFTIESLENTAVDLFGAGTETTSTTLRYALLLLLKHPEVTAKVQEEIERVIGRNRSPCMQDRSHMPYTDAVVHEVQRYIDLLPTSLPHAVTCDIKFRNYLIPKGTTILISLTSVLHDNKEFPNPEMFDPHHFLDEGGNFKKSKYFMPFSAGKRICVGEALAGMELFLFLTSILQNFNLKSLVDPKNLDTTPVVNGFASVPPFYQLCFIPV
Chain of Cytochrome P450 3A4 (P08684 whole entry): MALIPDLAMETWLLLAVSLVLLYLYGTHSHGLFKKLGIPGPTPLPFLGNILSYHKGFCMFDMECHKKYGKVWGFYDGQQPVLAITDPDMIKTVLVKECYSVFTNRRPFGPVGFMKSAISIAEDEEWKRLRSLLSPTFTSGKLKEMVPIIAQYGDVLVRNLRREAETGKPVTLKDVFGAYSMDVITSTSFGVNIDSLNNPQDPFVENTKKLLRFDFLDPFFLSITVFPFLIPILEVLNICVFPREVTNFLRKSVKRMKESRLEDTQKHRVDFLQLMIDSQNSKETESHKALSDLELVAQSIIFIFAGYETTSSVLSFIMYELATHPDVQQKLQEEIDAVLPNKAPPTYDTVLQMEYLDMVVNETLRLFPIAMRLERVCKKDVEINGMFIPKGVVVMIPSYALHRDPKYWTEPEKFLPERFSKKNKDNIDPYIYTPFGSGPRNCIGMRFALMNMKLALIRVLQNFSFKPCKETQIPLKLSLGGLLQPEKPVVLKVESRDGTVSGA
Chain of CYP3A4 (P08684 whole entry): as above
Chain of Voltage-gated inwardly rectifying potassium channel KCNH2 (Q12809 whole entry): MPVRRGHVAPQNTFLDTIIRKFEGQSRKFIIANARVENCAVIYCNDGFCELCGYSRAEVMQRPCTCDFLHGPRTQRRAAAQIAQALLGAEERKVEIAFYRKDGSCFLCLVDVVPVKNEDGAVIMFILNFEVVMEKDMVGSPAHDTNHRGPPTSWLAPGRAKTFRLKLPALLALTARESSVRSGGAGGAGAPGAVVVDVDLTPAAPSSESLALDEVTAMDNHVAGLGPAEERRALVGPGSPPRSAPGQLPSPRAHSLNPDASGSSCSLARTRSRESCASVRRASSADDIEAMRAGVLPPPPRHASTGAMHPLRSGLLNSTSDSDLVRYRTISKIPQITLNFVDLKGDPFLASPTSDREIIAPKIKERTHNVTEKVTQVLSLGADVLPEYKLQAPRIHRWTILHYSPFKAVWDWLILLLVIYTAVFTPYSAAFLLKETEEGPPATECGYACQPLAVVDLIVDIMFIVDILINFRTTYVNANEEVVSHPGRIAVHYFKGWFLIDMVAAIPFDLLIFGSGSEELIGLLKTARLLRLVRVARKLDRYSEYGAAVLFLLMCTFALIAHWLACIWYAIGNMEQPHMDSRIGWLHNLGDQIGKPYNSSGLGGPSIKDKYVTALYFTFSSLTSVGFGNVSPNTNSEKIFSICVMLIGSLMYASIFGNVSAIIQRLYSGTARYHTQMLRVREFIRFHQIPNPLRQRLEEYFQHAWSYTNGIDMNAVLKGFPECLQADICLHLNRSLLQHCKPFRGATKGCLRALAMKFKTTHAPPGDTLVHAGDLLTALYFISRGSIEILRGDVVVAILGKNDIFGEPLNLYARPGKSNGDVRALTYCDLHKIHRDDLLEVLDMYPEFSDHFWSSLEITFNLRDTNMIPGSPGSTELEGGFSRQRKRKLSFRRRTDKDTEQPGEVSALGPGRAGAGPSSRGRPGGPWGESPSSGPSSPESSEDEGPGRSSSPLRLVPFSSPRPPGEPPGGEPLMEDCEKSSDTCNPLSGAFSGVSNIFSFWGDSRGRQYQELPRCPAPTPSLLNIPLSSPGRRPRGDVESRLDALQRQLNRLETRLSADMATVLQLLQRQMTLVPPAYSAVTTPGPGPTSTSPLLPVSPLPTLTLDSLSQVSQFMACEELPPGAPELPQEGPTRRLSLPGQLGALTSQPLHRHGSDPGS
Chain of CYP2D6 (P10635 whole entry): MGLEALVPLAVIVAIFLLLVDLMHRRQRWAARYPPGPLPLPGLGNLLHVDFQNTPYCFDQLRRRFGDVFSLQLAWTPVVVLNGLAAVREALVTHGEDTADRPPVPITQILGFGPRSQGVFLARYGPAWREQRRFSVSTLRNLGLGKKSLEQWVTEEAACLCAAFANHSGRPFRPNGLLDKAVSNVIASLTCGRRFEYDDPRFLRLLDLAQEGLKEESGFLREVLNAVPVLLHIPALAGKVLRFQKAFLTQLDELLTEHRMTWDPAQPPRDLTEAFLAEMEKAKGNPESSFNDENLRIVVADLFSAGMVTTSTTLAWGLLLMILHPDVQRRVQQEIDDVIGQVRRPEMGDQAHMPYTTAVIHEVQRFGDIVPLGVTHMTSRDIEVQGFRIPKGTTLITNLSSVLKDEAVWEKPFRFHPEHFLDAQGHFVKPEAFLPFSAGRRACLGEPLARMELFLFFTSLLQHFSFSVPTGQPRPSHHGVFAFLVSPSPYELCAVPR

With `COCCCOc1cc2c(cc1OC)-c1cc(=O)c(C(=O)O)cn1[C@H](C(C)(C)C)CO2` the EC50 (Hepatitis B virus [1]) was 2.6 nM, the EC50 (Hepatitis B virus [2]) was 3.9 nM and the clearance [3] was 75 mL/min/kg. The Vd [4] was 5.8 L/kg, the half-life [5] was 2.5 h and the Cmax [6] was 1060 nM. It also gave a bioavailability [7] of 91.6%, a clearance [8] of 28 mL/min/kg and a Vd [9] of 1.72 L/kg. For the same molecule, the half-life [10] was 2 h, the Cmax [11] was 659 nM and the bioavailability [12] was 71.1%. For the same molecule, the clearance [13] was 4.04 mL/min/kg, the Vd [14] was 1.08 L/kg and the half-life [15] was 3.39 h. The Cmax [16] was 4850 nM, the AUC(0-t) [17] was 26.5 µM·h and the bioavailability [18] was 93.2%. It also gave a Papp A→B [19] of 1.4 ×10⁻⁶ cm/s, a Papp B→A [20] of 20.4 ×10⁻⁶ cm/s and an efflux ratio [21] of 14.1. The fraction unbound [22] was 0.44, the fraction unbound [23] was 0.414 and the microsomal CLint [24] was under 7.5 µL/min/mg. It also gave a microsomal CLint [25] of under 7.5 µL/min/mg, a microsomal CLint [26] of under 7.5 µL/min/mg and a microsomal CLint [27] of under 7.5 µL/min/mg. It also gave a microsomal CLint [28] of under 7.5 µL/min/mg, an IC50 (CYP1A2) of over 50000 nM and an IC50 (CYP2D6) of over 50000 nM. For the same molecule, the IC50 (CYP2C19) was over 50000 nM, the IC50 (CYP2C9) was over 50000 nM and the IC50 (CYP3A4) was over 50000 nM. For the same molecule, the IC50 [29] was over 30000 nM, the Activity (Cytochrome P450 3A4) was “Not Active” and the EC50 (Hepatitis B virus [30]) was 28.2 nM. For the same molecule, the EC50 (Hepatitis B virus [31]) was 16 nM, the Activity (Hepatitis B virus [32]) was 50% and the Activity (Hepatitis B virus [33]) was “Dose-Dependent Effect”. The Activity (Hepatitis B virus [34]) was “Dose-Dependent Effect”, the Activity (Hepatitis B virus [35]) was “Tde” and the Activity (Hepatitis B virus [36]) was “Tde”. The Activity (Hepatitis B virus [37]) was “Active”, the Activity (Hepatitis B virus [38]) was “Dose-Dependent Effect” and the Activity (Hepatitis B virus [39]) was “Dose-Dependent Effect”. The Activity (Hepatitis B virus [40]) was “inactive”, the Activity (Hepatitis B virus [41]) was “inactive” and the Activity (Hepatitis B virus [42]) was “inactive”. The Activity (Hepatitis B virus [43]) was “Active”, the Activity [44] was “Non-Toxic” and the Activity [45] was “Not Active”. The Activity [46] was “Non-Toxic”, the Activity [47] was “Toxic” and the Activity [48] was “Non-Toxic”.
